The experiment addresses T1, ATP9A (Homo sapiens, UniProt O75110).
T1 construct: N-terminal region before Pro38 deleted; N-terminal His6-EGFP tag cut off with HRV-3C; HEK293S GnT1- (BacMam); LMNG/GDN micelles; monomer, about 90 kDa
T1 sequence (O75110 38-1047): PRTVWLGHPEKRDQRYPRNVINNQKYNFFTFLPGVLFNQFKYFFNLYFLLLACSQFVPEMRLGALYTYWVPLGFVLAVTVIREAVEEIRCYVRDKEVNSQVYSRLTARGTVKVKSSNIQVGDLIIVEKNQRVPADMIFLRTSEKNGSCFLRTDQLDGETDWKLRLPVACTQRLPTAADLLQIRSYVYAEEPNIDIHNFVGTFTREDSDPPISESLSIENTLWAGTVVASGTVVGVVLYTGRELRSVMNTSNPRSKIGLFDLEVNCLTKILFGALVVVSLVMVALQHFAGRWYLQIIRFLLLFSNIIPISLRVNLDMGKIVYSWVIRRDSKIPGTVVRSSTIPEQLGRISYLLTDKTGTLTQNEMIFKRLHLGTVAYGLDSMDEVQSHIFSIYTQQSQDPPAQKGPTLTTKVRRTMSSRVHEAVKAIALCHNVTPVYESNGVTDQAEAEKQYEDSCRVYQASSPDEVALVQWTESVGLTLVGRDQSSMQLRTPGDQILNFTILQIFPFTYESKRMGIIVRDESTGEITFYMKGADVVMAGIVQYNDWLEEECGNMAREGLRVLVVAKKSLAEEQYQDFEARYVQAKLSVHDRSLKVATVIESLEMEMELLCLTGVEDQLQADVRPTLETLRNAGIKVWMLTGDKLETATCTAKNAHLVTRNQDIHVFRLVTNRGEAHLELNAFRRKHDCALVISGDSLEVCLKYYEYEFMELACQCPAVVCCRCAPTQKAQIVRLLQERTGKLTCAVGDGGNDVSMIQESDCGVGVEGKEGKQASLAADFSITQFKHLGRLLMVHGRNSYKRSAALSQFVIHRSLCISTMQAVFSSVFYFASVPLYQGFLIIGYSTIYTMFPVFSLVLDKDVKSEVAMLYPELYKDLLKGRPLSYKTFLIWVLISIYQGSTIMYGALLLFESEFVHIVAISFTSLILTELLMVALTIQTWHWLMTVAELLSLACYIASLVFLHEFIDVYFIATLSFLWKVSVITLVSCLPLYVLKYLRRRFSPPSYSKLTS
The experiment can be described thus: cryo-EM structure. Type of experiment: binding.

Each structure is given as a SMILES string.

`[F][Be-]([F])[F]` [BeF]: where the note is “phosphate analog bound at catalytic Asp391, E2P state, open (9VDK, 2.18 Å) and closed (9VDL, 2.31 Å) forms, made from 1 mM BeSO4 and 3 mM NaF, also used as ATPase blank”, the cryo-EM structure entry is “The phosphate analog BeF is bound to the catalytic Asp391”. Turning to `CC(C)CCC[C@@H](C)[C@H]1CC[C@H]2[C@@H]3CC=C4C[C@@H](O)CC[C@]4(C)[C@H]3CC[C@]12C` [CLR, cholesterol], under “open form, E2P BeF state, lipid modelled from density, not added, outside canonical phospholipid site”, the cryo-EM structure result was “Bound phospholipids (PLs) and cholesterol (CLR) in the open form are indicated”.

The record behind these values is paper PMC12494553, “A unique gating mechanism revealed by the cryo-EM structure of monomeric ATP9A flippase” (The Journal of Biological Chemistry, 2025).
